Experimental findings from patent US9675070B2 (BAYER CROPSCIENCE AG, priority 2013, dated 2017) are described below.

SMILES strings stand for the structures. Structures can show the parent of a compound that is named as a salt.

What is called chromatographic logP is lipophilicity estimated from chromatographic retention.

Data set [1] in a line: log P determination by HPLC on reversed-phase column (C18), EEC Directive 79/831 Annex V.A8. In kind it is physicochemical. To be noted: method a): Agilent 1100 LC, Zorbax Eclipse Plus C18, acetonitrile/water with formic acid, gradient 10-95% in 4.25 min, 55° C. The procedure: Agilent 1100 LC system; 50*4.6 Zorbax Eclipse Plus C18 1.8 micron; mobile phase A: acetonitrile (0.1% formic acid); mobile phase B: water (0.09% formic acid); linear gradient from 10% acetonitrile to 95% acetonitrile in 4.25 min, then 95% acetonitrile for a further 1.25 min; oven temperature 55° C.; flow rate: 2.0 ml/min. Mass detection is carried out via an Agilend MSD system.
^a)Unless indicated otherwise, the following method was used to determine the log P values and masses: The determination of the given log P values was carried out in accordance with EEC Directive 79/831 Annex V.A8 by HPLC (High Performance Liquid Chromatography) on a reversed-phase column (C18). Agilent 1100 LC system; 50*4.6 Zorbax Eclipse Plus C18 1.8 micron; mobile phase A: acetonitrile (0.1% formic acid); mobile phase B: water (0.09% formic acid); linear gradient from 10% acetonitrile to 95% acetonitrile in 4.25 min, then 95% acetonitrile for a further 1.25 min; oven temperature 55° C.; flow rate: 2.0 ml/min. Mass detection is carried out via an Agilend MSD system. ^b)Note for the alternative method for determining log P values and masses: The stated log P values were determined in accordance with EEC Directive 79/831 Annex V.A8 by HPLC (High Performance Liquid Chromatography) using a reversed-phase column (C18). Waters ACQUITY UPLC-MS system; 2.1*50 mm Zorbax Eclipse Plus C18 1.8 μm 600 bar; injection volume: 0.5 ul about 1000 ppm; mobile phase A: acetonitrile (0.1% formic acid); mobile phase B: water (0.085% formic acid); linear gradient from 10% acetonitrile to 95% acetonitrile in 1.5 min, then 95% acetonitrile for a further 0.5 min; oven temperature 60° C.; flow rate: 1.0 ml/min. Mass detection is carried out via a Waters SQD system.

Data set [2] deals with engorged adult female cattle ticks (Boophilus microplus). As to the kind of experiment: Boophilus microplus injection test (BOOPMI Inj). As to conditions: application rate 20 μg/animal; injection into abdomen; assessed after 7 days. Type of data set: in vivo. The procedure:
Boophilus microplus Injection Test (BOOPMI Inj)
(§1) Solvent: dimethyl sulphoxide
To produce a suitable preparation of active compound, 10 mg of active compound are mixed with 0.5 ml of solvent, and the concentrate is diluted with solvent to the desired concentration.
1 μl of the active compound solution is injected into the abdomen of 5 engorged adult female cattle ticks (Boophilus microplus). The animals are transferred into dishes and kept in a climate-controlled room.
(§2) The activity is assessed after 7 days by laying of fertile eggs. Eggs whose fertility is not visible from the outside are stored in a climate-controlled cabinet until the larvae hatch after about 42 days. An efficacy of 100% means that none of the ticks has laid any fertile eggs; 0% means that all eggs are fertile.

The test system of data set [3] is adult cat fleas (Ctenocephalides felis). As to the kind of experiment: Ctenocephalides felis oral test (CTECFE). Type of data set: in vivo. To be noted: application rate 100 ppm in citrated cattle blood; after 2 days. The procedure: Ctenocephalides felis-Oral Test ([…]) Solvent: dimethyl sulphoxide To produce a suitable preparation of active compound, 10 mg of active compound are mixed with 0.5 ml of dimethyl sulphoxide. Dilution with citrated cattle blood gives the desired concentration. About 20 unfed adult cat fleas (Ctenocephalides felis) are placed into a chamber which is closed at the top and bottom with gauze. A metal cylinder whose bottom end is closed with a parafilm is placed onto the chamber. The cylinder contains the blood/active ingredient preparation, which can be imbibed by the fleas through the parafilm membrane. After 2 days, the kill in % is determined. 100% means that all of the fleas have been killed; 0% means that none of the fleas have been killed.

Data set [4] concerns L1 larvae of the Australian sheep blowfly (Lucilia cuprina). As to the kind of experiment: Lucilia cuprina test (LUCICU). As to conditions: application rate 100 ppm; minced horsemeat; after 2 days. In kind it is in vivo. The protocol: Lucilia cuprina Test (LUCICU) Solvent: dimethyl sulphoxide To produce a suitable preparation of active compound, 10 mg of active compound are mixed with 0.5 ml of dimethyl sulphoxide, and the concentrate is diluted with water to the desired concentration. About 20 L1 larvae of the Australian sheep blowfly (Lucilia cuprina) are transferred into a test vessel containing minced horsemeat and the active compound preparation of the desired concentration. After 2 days, the kill in % is determined. 100% means that all of the larvae have been killed; 0% means that none of the larvae have been killed.

Data set [5] relates to larvae of the mustard beetle (Phaedon cochleariae). As to the kind of experiment: Phaedon cochleariae spray test (PHAECO). Type of data set: in vivo. To be noted: application rate 100 g/ha; Chinese cabbage leaf discs; after 7 days. The protocol: Phaedon cochleariae—Spray Test (PHAECO)
(§3) Solvents: 78.0 parts by weight of acetone
(§4) • 1.5 parts by weight of dimethylformamide Emulsifier: alkylaryl polyglycol ether
(§5) To produce a suitable preparation of active compound, 1 part by weight of active compound is dissolved using the stated parts by weight of solvent and made up with water comprising an emulsifier concentration of 1000 ppm until the desired concentration is reached. To produce further test concentrations, the preparation is diluted with emulsifier-containing water.
After 7 days, the efficacy in % is determined. 100% means that all of the beetle larvae have been killed; 0% means that none of the beetle larvae have been killed.

The subject of data set [6] is Tick nymphs (Amblyomma hebraeum). As to the kind of experiment: Amblyomma hebaraeum test (AMBYHE), tick nymph immersion. To be noted: application rate 100 ppm; immersion one minute; after 42 days. In kind it is in vivo. The procedure:
Amblyomma hebaraeum Test (AMBYHE) Solvent: dimethyl sulphoxide To produce a suitable preparation of active compound, 10 mg of active compound are mixed with 0.5 ml of dimethyl sulphoxide, and the concentrate is diluted with water to the desired concentration. Tick nymphs (Amblyomma hebraeum) are placed into perforated plastic beakers and immersed in the desired concentration for one minute. The ticks are transferred on filter paper into a Petri dish and stored in a climate-controlled cabinet. After 42 days, the kill in % is determined. 100% means that all of the ticks have been killed; 0% means that none of the ticks have been killed.

Data set [7] concerns adult houseflies (Musca domestica). The experiment in a line: Musca domestica test (MUSCDO). In kind it is in vivo. To be noted: application rate 100 ppm; after 2 days. The procedure: Musca domestica Test (MUSCDO) Solvents: dimethyl sulphoxide To produce a suitable preparation of active compound, 10 mg of active compound are mixed with 0.5 ml of dimethyl sulphoxide, and the concentrate is diluted with water to the desired concentration. Vessels containing a sponge treated with sugar solution and the active compound preparation of the desired concentration are populated with 10 adult houseflies (Musca domestica). After 2 days, the kill in % is determined. 100% means that all of the flies have been killed; 0% means that none of the flies have been killed.

For data set [8], the system named is caterpillars of the armyworm (Spodoptera frugiperda). As to the kind of experiment: Spodoptera frugiperda spray test (SPODFR). Type of data set: in vivo. To be noted: application rate 100 g/ha; maize leaf discs; after 7 days. The procedure:
Spodoptera frugiperda—Spray Test (SPODFR)
as §3, §4, §5
Leaf discs of maize (Zea mays) are sprayed with an active compound preparation of the desired concentration and, after drying, populated with caterpillars of the armyworm (Spodoptera frugiperda).
After 7 days, the efficacy in % is determined. 100% means that all of the caterpillars have been killed; 0% means that none of the caterpillars have been killed.

Data set [9] concerns greenhouse red spider mite (Tetranychus urticae), OP-resistant. The experiment in a line: Tetranychus urticae spray test, OP-resistant (TETRUR). To be noted: application rate 100 g/ha; bean leaf discs; after 6 days. In kind it is in vivo. The protocol: Tetranychus urticae—Spray Test, OP-Resistant (TETRUR)
as §3, §4, §5
Discs of bean leaves (Phaseolus vulgaris) which are infested by all stages of the greenhouse red spider mite (Tetranychus urticae) are sprayed with an active compound preparation of the desired concentration.
After 6 days, the efficacy in % is determined. 100% means that all of the spider mites have been killed; 0% means that none of the spider mites have been killed.

The subject of data set [10] is cattle ticks (Boophilus microplus) Parkhurst strain, SP-resistant. As to the kind of experiment: Boophilus microplus dip test (BOOPMI Dip). Type of data set: in vivo. To be noted: application rate 100 ppm, assessed after 7 days. The procedure:
Boophilus microplus—Dip Test (BOOPMI Dip)
Test animals: cattle ticks (Boophilus microplus) Parkhurst strain, SP-resistant
as §1
10 mg of active compound are dissolved in 0.5 ml of dimethyl sulphoxide. To prepare a suitable formulation, the active compound solution is diluted with water to the concentration desired in each case.
This active compound preparation is pipetted into tubes. 8-10 adult engorged female cattle ticks (Boophilus microplus) are transferred into a further tube with holes. The tube is immersed into the active compound formulation, and all ticks are completely wetted. After the liquid has run out, the ticks are transferred on filter discs into plastic dishes and stored in a climate-controlled room.
as §2

For the molecule `Cn1nc(C(F)(F)C(F)(F)F)c(C(F)(F)F)c1-n1cnc(-c2cccc(CN)c2)c1` [1-(3-{1-[1-methyl-3-(pentafluoroethyl)-4-(trifluoromethyl)-1H-pyrazol-5-yl]-1H-imidazol-4-yl}phenyl)methanamine hydrochloride], the chromatographic logP in data set [1] was 1.83.
On the same count and under the same terms, then `Cn1nc(C(F)(F)C(F)(F)F)c(C(F)(F)F)c1-n1cc(-c2cccc(CN)c2)cn1` [1-{3-[2′-methyl-5′-(pentafluoroethyl)-4′-(trifluoromethyl)-2′H-1,3′-bipyrazol-4-yl]phenyl}methanamine hydrochloride (1:1)], with 1.93; and `Cn1nc(C(F)(F)C(F)(F)F)c(C(F)(F)F)c1-n1cc(-c2ccc(F)c(C#N)c2)cn1` [2-fluoro-5-[2′-methyl-5′-(pentafluoroethyl)-4′-(trifluoromethyl)-2′H-1,3′-bipyrazol-4-yl]benzonitrile], with 4.37; and `Cn1nc(C(F)(F)C(F)(F)F)c(C(F)(F)F)c1-n1cc(Br)cn1` [4-bromo-2′-methyl-5′-(pentafluoroethyl)-4′-(trifluoromethyl)-2′H-1,3′-bipyrazole], with 4.17.
Take `Cn1nc(C(F)(F)C(F)(F)F)c(C(F)(F)F)c1-n1cnc(I)c1` [5-(4-iodo-1H-imidazol-1-yl)-1-methyl-3-(pentafluoroethyl)-4-(trifluoromethyl)-1H-pyrazole]: the chromatographic logP in [1] worked out at 3.47.
Consider `Cn1nc(C(F)(F)C(F)(F)F)c(C(F)(F)F)c1-n1cnc(-c2cccc(CNC(=O)OC(C)(C)C)c2)c1` [Ib-1, tert-butyl (3-{1-[1-methyl-3-(pentafluoroethyl)-4-(trifluoromethyl)-1H-pyrazol-5-yl]-1H-imidazol-4-yl}benzyl)carbamate], for which the chromatographic logP in [1] stood at 4.21.
The same measure, in the same setting: then `CCC(=O)NCc1cccc(-c2cn(-c3c(C(F)(F)F)c(C(F)(F)C(F)(F)F)nn3C)cn2)c1` [Ib-5, N-(3-{1-[1-methyl-3-(pentafluoroethyl)-4-(trifluoromethyl)-1H-pyrazol-5-yl]-1H-imidazol-4-yl}benzyl)propanamide], with 3.14.
With `CCC(=O)NCc1cc(-c2cnn(-c3c(C(F)(F)F)c(C(F)(F)C(F)(F)F)nn3C)c2)ccc1F` [Ib-8, N-{2-fluoro-5-[2′-methyl-5′-(pentafluoroethyl)-4′-(trifluoromethyl)-2′H-1,3′-bipyrazol-4-yl]benzyl}propanamide], the chromatographic logP in [1] stood at 3.27. In data set [2], the “efficacy (no laying of fertile eggs)” value is given as 100%. Besides, the values for the kill in % in data set [3] and in [4] were 95% and 100%, respectively. The molecule further came in with an efficacy in % in data set [5] of 100%.
As for `Cn1nc(C(F)(F)C(F)(F)F)c(C(F)(F)F)c1-n1cc(-c2ccc(F)c(CNC(=O)C3CC3)c2)cn1` [Ic-12], the kill in % in data set [6], in data set [3], in data set [4] and in [7] was 100% each time. The “efficacy (no laying of fertile eggs)” value in data set [2] turned out to be 100%. Also, the efficacy in % in data set [5] is reported as 100%; in [8] it was 100%; in data set [9] it was 90%.
Turning to `CC(=O)NCc1cccc(-c2cnn(-c3c(C(F)(F)F)c(C(F)(F)C(F)(F)F)nn3C)c2)c1` [Ic-16], the kill in % in data set [6], in [3], in [4] and in [7] was 100% throughout. Also, the “efficacy (no laying of fertile eggs)” value in data set [10] and in data set [2] was 100% each time. In addition, the efficacy in % is 100% in data set [5] and 90% in data set [9].
On to `CC(=O)NCc1cc(-c2cn(-c3c(C(F)(F)F)c(C(F)(F)C(F)(F)F)nn3C)nn2)ccc1F` [Ig-1], for which the entries for the “efficacy (no laying of fertile eggs)” value in [10] and in data set [2] were 80% and 100%, respectively. Further, the kill in % in data set [3], in data set [4] and in data set [7] was 100% throughout. Also, the efficacy in % in [5] and in data set [9] was 100% each time.
As to `CCC(=O)NCc1cc(-c2cn(-c3c(C(F)(F)F)c(C(F)(F)C(F)(F)F)nn3C)nn2)ccc1F` [Ig-5], the “efficacy (no laying of fertile eggs)” value in data set [10] and in data set [2] was 100% throughout. Further, the kill in % in data set [3], in [4] and in [7] was 100% in each case. Also, the efficacy in % in data set [5] and in data set [8] was 100% throughout.
